Laboratory results reported in patent US20250057963A1, “DISCOVERY OF PIPERLONGUMINE AS A NOVEL E3 LIGASE LIGAND” (University of Florida Research Foundation, Incorporated, priority 2021, published 2025).
Entries after “also recorded” stand apart in the source; their conditions may differ.

Columns and labels:
[1] = target: T1, CDK9 (Homo sapiens, UniProt P50750); assay: CDK9 degradation in MOLT4 cells (immunoblot); assay type: cell-based; parameters: endogenous in cells; host or cells: MOLT4, 293T, K562, NCI-H1299, LNCaP; conditions: 6 h treatment
Protocol: All the cell lines were maintained in a humidified incubator at 37° C. and 5% CO2.
Data analysis was performed using GraphPad Prism software (version 9) unless indicated otherwise. All graphs presented represent the mean±standard deviation of the mean (SD) unless otherwise stated.
Target sequence in this assay (P50750 whole entry): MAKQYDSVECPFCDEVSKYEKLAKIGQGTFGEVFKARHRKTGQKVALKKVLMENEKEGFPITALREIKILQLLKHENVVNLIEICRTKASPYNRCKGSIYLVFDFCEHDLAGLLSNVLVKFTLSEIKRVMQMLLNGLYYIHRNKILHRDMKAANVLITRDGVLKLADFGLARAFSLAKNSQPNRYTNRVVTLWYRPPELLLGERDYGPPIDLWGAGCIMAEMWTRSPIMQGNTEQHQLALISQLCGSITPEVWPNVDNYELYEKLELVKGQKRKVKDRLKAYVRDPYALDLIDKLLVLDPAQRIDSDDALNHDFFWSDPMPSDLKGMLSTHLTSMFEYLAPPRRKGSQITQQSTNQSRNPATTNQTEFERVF

[2] = target: T1, CDK9; conditions: Table 1; b281 prints these figures as IC50; cited from earlier work
Target sequence in this assay (P50750 whole entry, species assumed): as the sequence (P50750 whole entry) above
Target sequence in this assay (O60563 whole entry partner, species assumed): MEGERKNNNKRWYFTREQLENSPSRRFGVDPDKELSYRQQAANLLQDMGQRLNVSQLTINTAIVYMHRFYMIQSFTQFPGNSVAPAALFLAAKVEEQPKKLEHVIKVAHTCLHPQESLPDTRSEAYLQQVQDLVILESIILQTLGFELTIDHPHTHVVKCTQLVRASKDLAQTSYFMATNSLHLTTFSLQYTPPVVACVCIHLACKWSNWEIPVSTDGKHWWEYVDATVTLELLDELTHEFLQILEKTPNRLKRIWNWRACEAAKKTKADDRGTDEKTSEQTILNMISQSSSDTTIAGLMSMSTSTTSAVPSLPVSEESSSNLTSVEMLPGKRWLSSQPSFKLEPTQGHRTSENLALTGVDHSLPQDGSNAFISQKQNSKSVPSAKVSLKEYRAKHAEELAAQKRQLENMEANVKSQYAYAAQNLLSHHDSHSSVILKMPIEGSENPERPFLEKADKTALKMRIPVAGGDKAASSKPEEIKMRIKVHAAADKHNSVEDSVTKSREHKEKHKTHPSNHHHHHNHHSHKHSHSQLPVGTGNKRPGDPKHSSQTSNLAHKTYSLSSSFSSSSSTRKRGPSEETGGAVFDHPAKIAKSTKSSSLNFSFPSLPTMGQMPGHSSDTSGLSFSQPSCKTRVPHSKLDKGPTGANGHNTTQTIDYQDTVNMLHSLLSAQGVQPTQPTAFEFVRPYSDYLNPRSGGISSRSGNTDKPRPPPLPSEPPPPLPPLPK

[3] = tested on: LNCaP prostate cancer cells and H1299 lung cancer cells; assay: Cell killing (MTS) with or without KEAP1 siRNA knockdown; assay type: cell-based, Human; conditions: KEAP1 siRNA vs control siRNA 48 h; compound 0.1 mM (LNCaP) or 0.3 mM (H1299) for 24 h
Protocol: FIGS. 19A to 19B show percentages of cell killing in LNCaP (FIG. 19A) and H1299 (FIG. 19B) cells with or without KEAP1 knockdown. LNCaP and H1299 cells were treated with control siRNA or siRNAs targeting KEAP1 for 48 h and then reseeded and treated with indicated compound (0.1 mM for LNCaP cells and 0.3 mM for H1299 cells) for 24 h. The cell viability was then determined by MTS assay. The data are presented as mean±SD from three replicate cell cultures in a representative experiment. Data are representative of two independent experiments. Statistical significance was calculated with unpaired two-tailed Student's t-tests. **P<0.01; ***P<0.001; NS: not significant.
Viability (MTS) assays in various cancer cells followed the methods described in our previous report (Khan et al., 2019). The data were expressed as average % cell viability and fitted in non-linear regression curves using GraphPad Prism 9 (GraphPad Software, La Jolla, CA, USA).

[4] = tested on: LNCaP, 22RV1, PC3 and DU145 prostate cancer cell lines; assay: Viability (MTS) assay in prostate cancer cell lines; assay type: cell-based, Human; conditions: Homo sapiens, 72 h, read-out: EC50, anti-proliferation
Protocol: All the cell lines were maintained in a humidified incubator at 37° C. and 5% CO2. […] The data were expressed as average % cell viability and fitted in non-linear regression curves using GraphPad Prism 9 (GraphPad Software, La Jolla, CA, USA).

[5] = target: T2, CDK10 (Homo sapiens, UniProt Q15131); conditions: b290: Kinativ screening in MOLT4 lysates (Olson et al., 2018); cited from earlier work
T2 construct: endogenous in cells; host or cells: MOLT4
T2 sequence (Q15131 whole entry): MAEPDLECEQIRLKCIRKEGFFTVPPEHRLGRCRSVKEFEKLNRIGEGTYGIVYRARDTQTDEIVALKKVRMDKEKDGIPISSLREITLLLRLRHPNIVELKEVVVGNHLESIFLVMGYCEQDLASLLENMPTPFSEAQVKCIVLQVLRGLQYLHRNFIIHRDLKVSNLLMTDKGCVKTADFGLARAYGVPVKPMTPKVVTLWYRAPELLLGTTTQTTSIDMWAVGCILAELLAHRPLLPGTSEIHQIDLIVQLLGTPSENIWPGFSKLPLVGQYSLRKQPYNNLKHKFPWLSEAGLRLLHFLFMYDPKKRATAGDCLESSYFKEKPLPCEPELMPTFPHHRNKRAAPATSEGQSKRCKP

[6] = target: T1, CDK9; assay: TMT-based global proteomics in MOLT4 cells; assay type: cell-based; parameters: endogenous in cells; host or cells: MOLT4; conditions: 0.1 μM 955 for 1 h and 6 h, 1 μM SNS-032 for 6 h
Description: Sample Preparation and LC-MS/MS analysis. Total protein from cell pellets was reduced, alkylated, and purified by chloroform/methanol extraction prior to digestion with sequencing grade modified porcine trypsin (Cat. No. V5111, Promega). Tryptic peptides were labeled using tandem mass tag isobaric labeling reagents (Cat. No. A34808, ThermoFisher) following the manufacturer's instructions and combined into one 11-plex sample group. The labeled peptide multiplex was separated into 46 fractions on a 100×1.0 mm Acquity BEH C18 column (Waters) using an UltiMate 3000 UHPLC system (Thermo) with a 50 min gradient from 99:1 to 60:40 bufferA:B (Buffer A: 0.1% formic acid, 0.5% acetonitrile; Buffer B: 0.1% formic acid, 99.9% acetonitrile. Both buffers adjusted to pH 10 with ammonium hydroxide for offline separation) ratio under basic pH conditions, and then consolidated into 18 super-fractions. […]
Data processing and analysis. Proteins were identified and MS3 reporter ions quantified using MaxQuant (version 2.0.3.0; Max Planck Institute) against the Homo sapiens UniprotKB database (March 2021) with a parent ion tolerance of 3 ppm, a fragment ion tolerance of 0.5 Da, and a reporter ion tolerance of 0.003 Da. Scaffold Q+S (Proteome Software) was used to verify MS/MS based peptide and protein identifications (protein identifications were accepted if they could be established with less than 1.0% false discovery and contained at least 2 identified peptides; protein probabilities were assigned by the Protein Prophet algorithm (Nesvizhskii et al., 2003) and to perform reporter ion-based statistical analysis. Protein TMT MS3 reporter ion intensity values were assessed for quality using ProteiNorm for a systematic evaluation of normalization methods (Graw et al., 2020). Cyclic loess normalization (Ritchie et al., 2015) was utilized since it had the highest intragroup correlation and the lowest variance amongst the samples. […]
Target sequence in this assay (P50750 whole entry): as the sequence (P50750 whole entry) above

[7] = target: T1, CDK9; conditions: Olson et al., 2018; cited from earlier work
Target sequence in this assay (P50750 whole entry, species assumed): as the sequence (P50750 whole entry) above

SMILES | CDK9 degradation with short-term treatment [1] | Binding Affinity, CDK9 [2] | effect of KEAP1 knockdown on cytotoxicity of the compound [3] | EC50 [4] [nM] | binding of SNS-032 to CDK10 [5] | CDK9 protein level (global proteome) [6] | degradation selectivity among SNS-032 targets [7]
CC(C)(C)c1cnc(CSc2cnc(NC(=O)C3CCNCC3)s2)o1 [SNS-032, N-(5-(((5-(tert-butyl)oxazol-2-yl)methyl)thio)thiazol-2-yl)piperidine-4-carboxamide, reference compound] | no degradation effect; also recorded: could not | CDK9: 4 nM | no significant effect | > 100 | very low binding affinity; also recorded: moderate binding | no significant effect on CDK9 | –
CC(C)(C)c1cnc(CSc2cnc(NC(=O)C3CCN(CC(=O)NCCOCCOCCOCCNc4cccc5c4C(=O)N(C4CCC(=O)NC4=O)C5=O)CC3)s2)o1 (stereo not shown) [THAL-SNS-032] | – | – | – | – | – | – | could only degrade CDK9 but not other known SNS-032 targets
